Laboratory results published in ChEMBL document CHEMBL1133403 (Bioorg Med Chem Lett, 2000).

What was measured:
[1] = biological target: T1, Mineralocorticoid receptor (Homo sapiens, UniProt P08235); assay: Cross-reactivity as binding to human mineralocorticoid receptor (hMR); NA=not active; type: functional
T1 sequence (P08235 whole entry): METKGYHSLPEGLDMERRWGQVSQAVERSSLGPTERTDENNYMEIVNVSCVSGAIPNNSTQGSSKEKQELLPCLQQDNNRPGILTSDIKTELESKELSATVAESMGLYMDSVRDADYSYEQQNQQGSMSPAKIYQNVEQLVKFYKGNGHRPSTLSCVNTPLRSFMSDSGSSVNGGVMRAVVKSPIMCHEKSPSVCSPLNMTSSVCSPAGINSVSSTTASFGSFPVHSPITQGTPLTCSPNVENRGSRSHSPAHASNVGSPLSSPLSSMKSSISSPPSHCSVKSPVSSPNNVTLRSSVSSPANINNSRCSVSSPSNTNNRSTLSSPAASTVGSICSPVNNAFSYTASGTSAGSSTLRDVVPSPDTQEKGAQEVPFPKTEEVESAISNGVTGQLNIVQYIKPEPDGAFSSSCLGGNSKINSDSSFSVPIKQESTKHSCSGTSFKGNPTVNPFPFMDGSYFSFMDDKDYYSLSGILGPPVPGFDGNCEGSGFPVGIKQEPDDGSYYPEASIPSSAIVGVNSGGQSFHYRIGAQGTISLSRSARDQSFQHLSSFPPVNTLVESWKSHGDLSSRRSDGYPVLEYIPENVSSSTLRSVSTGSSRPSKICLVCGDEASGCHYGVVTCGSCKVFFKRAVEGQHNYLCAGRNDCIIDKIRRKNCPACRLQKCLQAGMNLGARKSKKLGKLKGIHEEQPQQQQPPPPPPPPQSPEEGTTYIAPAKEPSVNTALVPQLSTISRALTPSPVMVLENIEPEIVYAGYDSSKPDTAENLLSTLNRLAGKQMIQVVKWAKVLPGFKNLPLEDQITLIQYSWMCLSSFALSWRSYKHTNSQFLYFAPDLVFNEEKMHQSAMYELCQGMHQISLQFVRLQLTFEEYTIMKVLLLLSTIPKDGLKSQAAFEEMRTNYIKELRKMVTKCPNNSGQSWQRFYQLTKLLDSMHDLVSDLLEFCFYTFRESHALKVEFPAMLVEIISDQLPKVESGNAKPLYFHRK

[2] = biological target: T2, Progesterone receptor (Homo sapiens, UniProt P06401); assay: Binding affinity against human progesterone receptor (hPR) in a competitive binding assay
T2 sequence (P06401 whole entry): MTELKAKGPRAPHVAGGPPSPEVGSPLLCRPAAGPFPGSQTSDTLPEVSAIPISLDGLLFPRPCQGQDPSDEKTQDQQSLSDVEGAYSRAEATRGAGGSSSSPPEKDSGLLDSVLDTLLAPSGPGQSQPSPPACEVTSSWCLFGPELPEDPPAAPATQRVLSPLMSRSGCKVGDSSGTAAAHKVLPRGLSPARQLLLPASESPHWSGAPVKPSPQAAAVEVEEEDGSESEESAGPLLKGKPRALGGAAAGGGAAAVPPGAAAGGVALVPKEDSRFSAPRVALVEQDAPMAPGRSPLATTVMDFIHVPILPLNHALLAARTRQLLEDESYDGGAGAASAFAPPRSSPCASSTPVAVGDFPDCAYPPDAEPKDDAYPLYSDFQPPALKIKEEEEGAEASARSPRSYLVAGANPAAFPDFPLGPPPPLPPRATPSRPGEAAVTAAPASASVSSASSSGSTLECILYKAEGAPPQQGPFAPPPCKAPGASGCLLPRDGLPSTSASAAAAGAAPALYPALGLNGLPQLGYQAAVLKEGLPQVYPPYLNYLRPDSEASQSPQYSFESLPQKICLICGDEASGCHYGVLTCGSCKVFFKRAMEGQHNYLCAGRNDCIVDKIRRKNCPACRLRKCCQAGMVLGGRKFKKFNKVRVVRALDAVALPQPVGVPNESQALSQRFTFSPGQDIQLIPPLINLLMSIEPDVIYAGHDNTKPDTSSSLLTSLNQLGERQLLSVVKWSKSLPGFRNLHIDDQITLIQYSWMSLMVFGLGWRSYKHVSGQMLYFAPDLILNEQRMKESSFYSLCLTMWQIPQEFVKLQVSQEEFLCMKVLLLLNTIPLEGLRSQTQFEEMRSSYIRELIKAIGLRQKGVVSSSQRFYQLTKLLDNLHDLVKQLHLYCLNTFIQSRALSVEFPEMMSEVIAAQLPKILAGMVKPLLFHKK

[3] = biological target: T2, Progesterone receptor; assay: Human progesterone receptor (hPR) agonist activity in T47D human breast cancer cell line; type: functional, cell-based
[4] = biological target: T3, Androgen receptor (Homo sapiens, UniProt P10275); assay: Cross-reactivity as binding to human androgen receptor (hAR); type: functional
T3 sequence (P10275 whole entry): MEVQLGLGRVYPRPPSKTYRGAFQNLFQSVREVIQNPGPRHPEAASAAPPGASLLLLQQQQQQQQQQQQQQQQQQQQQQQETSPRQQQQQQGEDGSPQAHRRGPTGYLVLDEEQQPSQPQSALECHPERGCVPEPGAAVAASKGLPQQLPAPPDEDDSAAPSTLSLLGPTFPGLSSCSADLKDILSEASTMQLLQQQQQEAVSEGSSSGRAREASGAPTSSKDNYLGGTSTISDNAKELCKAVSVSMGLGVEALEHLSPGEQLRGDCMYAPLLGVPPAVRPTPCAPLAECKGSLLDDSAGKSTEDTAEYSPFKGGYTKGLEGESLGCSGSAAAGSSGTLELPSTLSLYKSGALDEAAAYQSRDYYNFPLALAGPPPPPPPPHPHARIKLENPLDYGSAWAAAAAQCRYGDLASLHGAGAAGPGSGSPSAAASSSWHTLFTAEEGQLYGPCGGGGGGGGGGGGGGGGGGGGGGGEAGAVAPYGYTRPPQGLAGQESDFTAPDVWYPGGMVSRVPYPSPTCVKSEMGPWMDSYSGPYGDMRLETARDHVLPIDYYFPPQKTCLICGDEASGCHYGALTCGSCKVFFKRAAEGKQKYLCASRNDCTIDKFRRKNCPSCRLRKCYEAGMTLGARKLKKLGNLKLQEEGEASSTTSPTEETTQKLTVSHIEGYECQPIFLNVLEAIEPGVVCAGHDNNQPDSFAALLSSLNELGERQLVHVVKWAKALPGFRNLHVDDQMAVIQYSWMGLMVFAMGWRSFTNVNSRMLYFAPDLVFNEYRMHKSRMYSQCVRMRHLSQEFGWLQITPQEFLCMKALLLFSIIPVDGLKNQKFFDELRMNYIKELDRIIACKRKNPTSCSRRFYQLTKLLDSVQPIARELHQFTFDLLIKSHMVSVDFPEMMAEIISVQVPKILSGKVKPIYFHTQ

CC1=CC(C)(C)Nc2ccc(-c3ccc([N+](=O)[O-])s3)cc21
IC50 [1]: Not Active
Ki [2]: 0.0026 µM
EC50 [3]: 1.02 µM
IC50 [4]: 1.46 µM
